# Data: patent US10015966B2, “Fungicidal pyrazole mixtures” (E I DU PONT DE NEMOURS AND COMPANY, priority 2012, dated 2018)
# Marks after values point to notes of the source that are not given here.
# Columns and labels:
# [1] = system: Botrytis cinerea; experiment: Test A: preventive spray on tomato seedlings, tomato Botrytis, visual disease rating; type: in vivo; conditions: 200 ppm test suspension
# Method: General protocol for preparing test suspensions for Tests A-I: the test compounds were first dissolved in acetone in an amount equal to 3% of the final volume and then suspended at the desired concentration (in ppm) in acetone and purified water (50/50 mix by volume) containing 250 ppm of the surfactant Trem® 014 (polyhydric alcohol esters). The resulting test suspensions were then used in Tests A-I. Each test was conducted in triplicate, and the results were averaged. Spraying a 200 ppm test suspension to the point of run-off on the test plants was the equivalent of a rate of about 800 g/ha. Unless otherwise indicated, the rating values indicate a 200 ppm test suspension was used. (An asterisk “*” next to the rating value indicates a 40 ppm test suspension was used.) The test suspension was sprayed to the point of run-off on tomato seedlings. The following day the seedlings were inoculated with a spore suspension of Botrytis cinerea (the causal agent of tomato Botrytis) and incubated in saturated atmosphere at 20° C. for 48 h, and then moved to a growth chamber at 24° C. for 3 additional days, after which time visual disease ratings were made. Results for Tests A-I are given in Table A. In the Table, a rating of 100 indicates 100% disease control and a rating of 0 indicates no disease control (relative to the controls). A hyphen (-) indicates no test results.
# [2] = system: Blumeria graminis f. sp. tritici; experiment: Test I: preventive spray on wheat seedlings, wheat powdery mildew, visual disease rating; type: in vivo; conditions: 192 h, 200 ppm test suspension
# Method: General protocol for preparing test suspensions for Tests A-I: the test compounds were first dissolved in acetone in an amount equal to 3% of the final volume and then suspended at the desired concentration (in ppm) in acetone and purified water (50/50 mix by volume) containing 250 ppm of the surfactant Trem® 014 (polyhydric alcohol esters). The resulting test suspensions were then used in Tests A-I. Each test was conducted in triplicate, and the results were averaged. Spraying a 200 ppm test suspension to the point of run-off on the test plants was the equivalent of a rate of about 800 g/ha. Unless otherwise indicated, the rating values indicate a 200 ppm test suspension was used. (An asterisk “*” next to the rating value indicates a 40 ppm test suspension was used.) The test suspension was sprayed to the point of run-off on wheat seedlings. The following day the seedlings were inoculated with a spore dust of Blumeria graminis f. sp. tritici (also known as Erysiphe graminis f. sp. tritici, the causal agent of wheat powdery mildew) and incubated in a growth chamber at 20° C. for 8 days, after which time visual disease ratings were made. Results for Tests A-I are given in Table A. In the Table, a rating of 100 indicates 100% disease control and a rating of 0 indicates no disease control (relative to the controls). A hyphen (-) indicates no test results.
# [3] = system: Puccinia recondita f. sp. tritici; experiment: Test H: preventive spray on wheat seedlings, wheat leaf rust, visual disease rating; type: in vivo; conditions: 200 ppm test suspension
# Method: General protocol for preparing test suspensions for Tests A-I: the test compounds were first dissolved in acetone in an amount equal to 3% of the final volume and then suspended at the desired concentration (in ppm) in acetone and purified water (50/50 mix by volume) containing 250 ppm of the surfactant Trem® 014 (polyhydric alcohol esters). The resulting test suspensions were then used in Tests A-I. Each test was conducted in triplicate, and the results were averaged. Spraying a 200 ppm test suspension to the point of run-off on the test plants was the equivalent of a rate of about 800 g/ha. Unless otherwise indicated, the rating values indicate a 200 ppm test suspension was used. (An asterisk “*” next to the rating value indicates a 40 ppm test suspension was used.) The test suspension was sprayed to the point of run-off on wheat seedlings. The following day the seedlings were inoculated with a spore suspension of Puccinia recondita f. sp. tritici (the causal agent of wheat leaf rust) and incubated in a saturated atmosphere at 20° C. for 24 h, and then moved to a growth chamber at 20° C. for 6 days, after which time visual disease ratings were made. Results for Tests A-I are given in Table A. In the Table, a rating of 100 indicates 100% disease control and a rating of 0 indicates no disease control (relative to the controls). A hyphen (-) indicates no test results.
# [4] = system: Septoria tritici; experiment: Test F: preventive spray on wheat seedlings, wheat leaf blotch, visual disease rating; type: in vivo; conditions: Zymoseptoria tritici, 200 ppm test suspension
# Method: General protocol for preparing test suspensions for Tests A-I: the test compounds were first dissolved in acetone in an amount equal to 3% of the final volume and then suspended at the desired concentration (in ppm) in acetone and purified water (50/50 mix by volume) containing 250 ppm of the surfactant Trem® 014 (polyhydric alcohol esters). The resulting test suspensions were then used in Tests A-I. Each test was conducted in triplicate, and the results were averaged. Spraying a 200 ppm test suspension to the point of run-off on the test plants was the equivalent of a rate of about 800 g/ha. Unless otherwise indicated, the rating values indicate a 200 ppm test suspension was used. (An asterisk “*” next to the rating value indicates a 40 ppm test suspension was used.) The test suspension was sprayed to the point of run-off on wheat seedlings. The following day the seedlings were inoculated with a spore suspension of Septoria tritici (the causal agent of wheat leaf blotch) and incubated in saturated atmosphere at 24° C. for 48 h. and then the seedlings were moved to a growth chamber at 20° C. for 19 additional days, after which time visual disease ratings were made. Results for Tests A-I are given in Table A. In the Table, a rating of 100 indicates 100% disease control and a rating of 0 indicates no disease control (relative to the controls). A hyphen (-) indicates no test results.
# [5] = Single oral dose pharmacokinetics in rats, plasma and fat analysed by LC/MS (fat:plasma ratio); type: in vivo; conditions: single dose via oral gavage, compared to corresponding compounds with a nonhydrogen substituent at the para position of the phenyl ring connected to R^1 and R^2
# Method: The pharmacokinetic properties of compounds of Formula 1 can be measured using a wide variety of assay protocols known in the science of pharmacology. In one illustrative method involving a single oral dose, three male and three female rats receive a single dose of a test substance via oral gavage. Approximately 0.25 mL of blood is collected via tail vein immediately prior to dosing, and then at 0.25, 0.5, 1, 2, 4, 8, 12, 24 h and every 24 h thereafter until sacrifice. At sacrifice, fat is also collected to determine the fat:plasma ratio at sacrifice. Blood is collected into tubes that contain ethylenediaminetetracetic acid (EDTA) and centrifuged at 2500×g in order to separate plasma from blood cells. The plasma is then extracted by protein precipitation using, for example, acetonitrile and a protein precipitation plate (e.g., Strata Impact Protein Precipitation Plate, part number CEO-7565 of Phenomenex, Torrance, Calif., U.S.A.) following directions provided for the plate. Alternatively, the plasma is extracted just with acetonitrile, vortexed (i.e. mixed using a vortex mixer), and centrifuged to pellet the proteins. After removal of the proteins, the plasma is analyzed for parent compound and/or metabolites by liquid chromatography-mass spectrometry (LC/MS). The fat is homogenized and extracted by an organic solvent such as acetonitrile. The extract is then analyzed for parent compound and/or metabolites by LC/MS. The plasma pharmacokinetic data is then analyzed using nonlinear modeling software (e.g., WinNonlin™ from Pharsight, Cary, N.C., U.S.A.) to determine half-life of the administered compound in plasma, the time after administration when the maximum plasma concentration is reached (Tmax), the maximum plasma concentration (Cmax) and the area under the plasma concentration curve (AUC). As analysis of fat requires rat sacrifice, fat data is obtained at single time points (i.e. the time of rat sacrifice). However, by using multiple rats sacrificed after different intervals from time of dosing, such parameters as Cmax for fat are determined.
# [6] = system: Septoria nodorum; experiment: Test E: preventive spray on wheat seedlings, Septoria glume blotch, visual disease rating; type: in vivo; conditions: asterisked rating: test suspension other than 200 ppm
# Method: General protocol for preparing test suspensions for Tests A-I: the test compounds were first dissolved in acetone in an amount equal to 3% of the final volume and then suspended at the desired concentration (in ppm) in acetone and purified water (50/50 mix by volume) containing 250 ppm of the surfactant Trem® 014 (polyhydric alcohol esters). The resulting test suspensions were then used in Tests A-I. Each test was conducted in triplicate, and the results were averaged. Spraying a 200 ppm test suspension to the point of run-off on the test plants was the equivalent of a rate of about 800 g/ha. Unless otherwise indicated, the rating values indicate a 200 ppm test suspension was used. (An asterisk “*” next to the rating value indicates a 40 ppm test suspension was used.) The test suspension was sprayed to the point of run-off on wheat seedlings. The following day the seedlings were inoculated with a spore suspension of Septoria nodorum (the causal agent of Septoria glume blotch) and incubated in a saturated atmosphere at 24° C. for 48 h, and then moved to a growth chamber at 20° C. for 9 days, after which time visual disease ratings were made. Results for Tests A-I are given in Table A. In the Table, a rating of 100 indicates 100% disease control and a rating of 0 indicates no disease control (relative to the controls). A hyphen (-) indicates no test results.
SMILES,pest or weed control at 200 ppm [1] [%],pest or weed control at 200 ppm [2] [%],pest or weed control at 200 ppm [3] [%],pest or weed control at 200 ppm [4] [%],distribution into fat [5],Test E rating (% disease control) [6],melting point [°C]
"Cc1nn(C)c(Nc2c(F)cccc2Cl)c1-c1ccc(F)cc1Br [Compound 4, 4-(2-bromo-4-fluorophenyl)-N-(2-chloro-6-fluorophenyl)-1,3-dimethyl-1H-pyrazol-5-amine]",100,100,100,100,significantly diminished distribution into fat,–,–
"Cc1nn(C)c(Nc2ccccc2Cl)c1-c1ccc(F)cc1Br [Compound 8, 4-(2-bromo-4-fluorophenyl)-N-(2-chlorophenyl)-1,3-dimethyl-1H-pyrazol-5-amine]",100,100,99,100,–,–,–
"Cc1nn(C)c(Nc2ccccc2Cl)c1-c1ccc(F)cc1Cl [Compound 10, 4-(2-chloro-4-fluorophenyl)-N-(2-chlorophenyl)-1,3-dimethyl-1H-pyrazol-5-amine]",–,–,–,–,–,0* %,–
"Cc1nn(C)c(Nc2c(F)cccc2Br)c1-c1ccc(F)cc1Cl [Compound 5, N-(2-bromo-6-fluorophenyl)-4-(2-chloro-4-fluorophenyl)-1,3-dimethyl-1H-pyrazol-5-amine]",100,100,100,100,significantly diminished distribution into fat,–,–
"Cc1nn(C)c(Nc2ccccc2Br)c1-c1ccc(F)cc1Cl [Compound 9, N-(2-bromophenyl)-4-(2-chloro-4-fluorophenyl)-1,3-dimethyl-1H-pyrazol-5-amine]",–,–,–,–,–,0* %,–
"Cc1nn(C)c(Nc2c(F)cccc2F)c1-c1ccc(F)cc1Br [Compound 11, 4-(2-bromo-4-fluorophenyl)-N-(2,6-difluorophenyl)-1,3-dimethyl-1H-pyrazol-5-amine]",–,–,–,–,–,60* %,–
"Cc1nn(C)c(Nc2c(F)cccc2Br)c1-c1ccc(F)cc1Br [Compound 7, 4-(2-bromo-4-fluorophenyl)-N-(2-bromo-6-fluorophenyl)-1,3-dimethyl-1H-pyrazol-5-amine]",100,100,100,100,–,–,154 to 156
